Experimental data: patent publication US20120022121A1, “INDOLES, DERIVATIVES AND ANALOGS THEREOF AND USES THEREFOR” (priority 2007, published 2012)

Columns and labels:
PC-3 cells [1] = assay: DNA fragmentation by cell death detection ELISA (anti-histone); assay type: cell-based; conditions: Homo sapiens, 24 h, read-out: EC50 of increase of enrichment factor (DNA fragmentation)
Description: Apoptosis was measured by quantitation of cytoplasmic histone-associated DNA fragments using the cell death detection ELISA kit. Cells were seeded in 6-well plates and exposed to 68 for 24 h at different concentrations. The quantitation of DNA fragments was performed according to the manufacturer's instructions. Results are expressed as the enrichment factor (i.e., the ratio of the optical density in treated cells to the optical density in control cells).

solid tumor cell lines = assay: Growth inhibition, range over the cell lines of Table 2; assay type: cell-based; conditions: Homo sapiens, read-out: IC50 values, range over the cell lines tested
Description: Cell viability (LNCaP, PC-3 prostate, DU145, PPC-1, and TSU-Pr1 prostate cancer cell lines, HT-29 colon cancer cell line, and MCF-7 breast cancer cell line) was quantitated using the sulforhodamine B (SRB) assay after 96 h coincubation with different concentrations of compound in 96-well plates. Cell viability of leukemia cells (K562 and doxorubicin-resistant K562/Dox) was quantitated by MTT assay after 96 h coincubation with different concentrations of compound in 96-well plates. Drug-induced apoptosis was determined by anti-histone ELISA assay and DNA laddering. Cell cycle progression was assessed by propidium iodide staining and fluorescence-activated cell sorting (FACS) analysis. In vitro tubulin polymerization assay was determined by CytoDYNAMIX ScreenTM3 (CDS-03) kits according to the manufacturer's instructions. Anti-apoptosis protein (Bcl-2 and Bcl-xl) and pro-apoptosis protein (Bax) were examined in LNCaP and PC-3 after 24 h incubation with different concentrations of compound 13 by Western blot assay. In vivo PC-3 xenograft studies were conducted by i.v. dosing of 50 mg/kg, 100 mg/kg and 150 mg/kg for 2 weeks.
Cells were plated in 96-well plates at a density of 800-5,000 cells/well, depending on the cell line, in their required growth media containing 10% fetal bovine serum. […]

HT-29 = assay: Growth inhibition assay (SRB, 96 h); assay type: cell-based; conditions: Homo sapiens, HT-29, 96 h
Source text: (§1) MTT (3-(4,5-dimethylthiazol-2-yl)-2,5-diphenyltetrazolium bromide) assay was also used for the leukemia cell lines. […] Cells were stained with SRB solution or MTT solution.

TSU-Pr1 = assay: Growth inhibition assay (SRB, 96 h); assay type: cell-based; conditions: Homo sapiens, TSU-Pr1, 96 h
Source text: as §1

MCF-7 = assay: Growth inhibition assay (SRB, 96 h); assay type: cell-based; conditions: Homo sapiens, MCF7; MCF-7, 96 h
Source text: as §1

PC-12 cells [2] = assay: In vitro NGF-dependent neurite outgrowth; assay type: cell-based
Description: PC-12 cells were seeded in 6-well plates coated with poly-D-lysine (BD, Franklin Lakes, N.J.) (10000 cells/well). After 6 h, cells were pretreated for 3 days by adding 100 ng/mL murine 2.5S β-NGF (Promega, Madison, Wis.) to induce neuronal differentiation and neurite outgrowth. Differentiated cells were then treated for 24 h with compounds at various concentrations in the presence of NGF (100 ng/mL). Vinblastine and docetaxel were used as positive controls. After compound treatments, approximately 100 cells in each well were randomly chosen and the numbers of cells with no neurites, short neurites (<2×cell body), and long neurites (>2×cell body) were counted (n=3).

PC-12 cells [3] = assay: PC-12 cell growth inhibition (SRB); assay type: cell-based
Source text: as §1

DU-145 = assay: Cell viability SRB assay, 96 h; assay type: cell-based; conditions: Homo sapiens, DU-145, 96 h
How it was run: (§2)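 Cells seeded at 800–5,000/well in medium with 10% FBS and exposed to compound at 0–100 μM (DMSO <0.5%) in quadruplicate. Incubation 96 h at 37 °C, 5% CO2. Viability read by sulforhodamine B staining.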

PC-3 = assay: Cell viability SRB assay, 96 h; assay type: cell-based; conditions: Homo sapiens, PC-3, 96 h
How it was run: as §2

TSU = assay: Cell viability SRB assay, 96 h; assay type: cell-based; conditions: Homo sapiens, TSU (TSU-Pr1)
How it was run: as §2

LNCaP = assay: Cell viability SRB assay, 96 h; assay type: cell-based; conditions: Homo sapiens
How it was run: as §2

PPC-1 = assay: Cell viability SRB assay, 96 h; assay type: cell-based; conditions: Homo sapiens, PPC-1, 96 h
How it was run: as §2

K562/Dox [4] = assay: Cell viability MTT assay, 96 h; assay type: cell-based; conditions: Homo sapiens, doxorubicin-resistant
Description: (§3) Cells were seeded in 96-well plates and incubated with different concentrations of compound 13, 68 or other anticancer drugs for 96 h. Cell viability was quantitated by MTT assay. […] Table 4 is a comparison of the IC50 of compounds 13, 68 and other anticancer drugs in the K562 and doxorubicin-resistant K562/DOX cell lines.

K562 = assay: Cell viability MTT assay, 96 h; assay type: cell-based; conditions: Homo sapiens
Description: as §3

PC-3 cells [5] = assay: Cell cycle analysis (PI staining, FACS); assay type: cell-based, human; conditions: for percentage of PC-3 cells in G2M phase: 24 h; for EC50: Homo sapiens, 0.1 nM to 1 μM, read-out: EC50 of cell cycle arrest in G2M phase; for EC50 / percentage of sub-G1 phase: PC-3, 24 h
Description: Cell cycle distribution was determined by propidium iodide (PI) staining. Treated cells were washed with PBS and fixed with 70% ice-cold ethanol overnight. Fixed cells were then stained with 20 μg/mL of PI in the presence of RNase A (300 μg/mL) at 37° C. for 30 min. Cell cycle distribution was analyzed by fluorescence-activated cell sorting (FACS).

K562/Dox [6] = assay: Growth inhibition assay (MTT, 96 h); assay type: cell-based, human; conditions: for IC50: Homo sapiens, K562/Dox, P-gp over-expressed, 96 h; for resistance factor (ratio of IC50 resistant subline to parental cell line): K562/Dox vs K562 (P-gp)
Source text: as §1

tubulin = system: T1, tubulin; assay: In vitro tubulin polymerization assay; assay type: biochemical, bovine; conditions: cell free, turbidity 340 nm, 40 min; read-out: IC50 of microtubule formation (tubulin polymerization)
T1 construct: IC50 of microtubule formation (tubulin polymerization); other: cell free, turbidity 340 nm, 40 min
Description: Tubulin polymerization kits (Cytoskeleton, Denver, Colo.) were used to study tubulin depolymerization. The reaction contained 50 μL of 4 mg/mL tubulin in PEM buffer (80 mM PIPES, pH 7.0, 0.5 mM EGTA, 2 mM MgCl2, 1 mM GTP, 10% glycerol). The procedure was done according to the manufacturer's protocol. Tubulin polymerization was monitored in a UV spectrophotometer for 40 minutes at 340 nm at 37° C.

| Compound | EC50 (PC-3 cells [1]) | IC50 (solid tumor cell lines) | IC50 (HT-29) | IC50 (TSU-Pr1) | IC50 (MCF-7) | IC70 value in PC-12 cell growth inhibition (PC-12 cells [3]) | IC50 (DU-145) | IC50 (PC-3) | IC50 (TSU) | IC50 (LNCaP) | IC50 (PPC-1) | IC50 (K562/Dox [4]) | IC50 (K562) | EC50 (PC-3 cells [5]) | IC50 (K562/Dox [6]) | resistance factor (ratio of IC50 resistant subline to parental cell line) (K562/Dox [6]) | IC50 (tubulin) | other results |
| --- | --- | --- | --- | --- | --- | --- | --- | --- | --- | --- | --- | --- | --- | --- | --- | --- | --- | --- |
| COc1cc(C(=O)c2cccc(-c3cc4ccccc4[nH]3)c2)cc(OC)c1OC [Compound 68, [3-(1H-Indol-2-yl)-phenyl]-(3,4,5-trimethoxy-phenyl)-methanone] | 0.0427 µM | 0.018 to 0.031 µM | 0.0151 ± 0.0013 µM | 0.0176 ± 0.0021 µM | 0.0392 ± 0.0029 µM | 0.05 µM | 0.023 ± 0.0041 µM | 0.028 ± 0.002 µM | 0.018 ± 0.0021 µM | 0.013 ± 0.0035 µM | 0.019 ± 0.0015 µM | 0.018 ± 0.0044 µM | 0.0236 ± 0.0024 µM | 0.034 µM | 0.018 ± 0.0044 µM | (0.8) | 0.381 µM | cells with neurites (PC-12 cells [2]; PC12, 50 nM, 'a more toxic dose than IC50 value'): 60%; cells showing neurite elongation (PC-12 cells [2]; PC12, NGF 100 ng/mL, 24 h, 50 nM (vehicle 88%)): 59%; percentage of PC-3 cells in G2M phase (PC-3 cells [5]; 10 nM (control 19)): 24%; percentage of PC-3 cells in G2M phase (PC-3 cells [5]; 50 nM (control 19)): 63%; percentage of PC-3 cells in G2M phase (PC-3 cells [5]; 100 nM (control 19)): 77%; percentage of sub-G1 phase (PC-3 cells [5]; 10 nM (control 0.2)): 0.5%; percentage of sub-G1 phase (PC-3 cells [5]; 50 nM (control 0.2)): 0.7%; percentage of sub-G1 phase (PC-3 cells [5]; 100 nM (control 0.2)): 1.3% |
| O=C(c1cccc(-c2cc3ccccc3[nH]2)c1)c1cc2ccccc2[nH]1 [Compound 13, (1H-indol-2-yl)-[3-(1H-indol-2-yl)phenyl]methanone] |  | 0.034 to 0.138 µM |  |  |  |  | 0.138 ± 0.0126 µM | 0.0811 ± 0.0096 µM | 0.0338 ± 0.0018 µM | 0.442 ± 0.0024 µM | 0.0673 ± 0.0011 µM | 0.0782 ± 0.0029 µM | 0.0636 ± 0.0024 µM |  |  |  |  |  |
| CC[C@]1(O)C[C@@H]2CN(CCc3c([nH]c4ccccc34)[C@@](C(=O)OC)(c3cc4c(cc3OC)N(C)[C@H]3[C@@](O)(C(=O)OC)[C@H](OC(C)=O)[C@]5(CC)C=CCN6CC[C@]43[C@@H]65)C2)C1 [Vinblastine] | 0.0081 µM |  | 0.0024 ± 0.0002 µM | 0.0016 ± 0.0001 µM | 0.0014 ± 0.0004 µM | 0.005 µM |  |  |  |  |  | 0.14 ± 0.0101 µM | 0.0003 ± 0.0001 µM | 0.007 µM | 0.268 ± 0.048 µM | […] | […] | cells with long neurites (PC-12 cells [2]; PC12, NGF 100 ng/mL, 24 h, 5 nM): 1.5%; cells with elongated neurites (PC-12 cells [2]; PC12, NGF 100 ng/mL, 24 h, 5 nM (vehicle 88%)): Twenty-one |
